This is an account of results in ChEMBL document CHEMBL5214887, “Dispirotripiperazine-core compounds, their biological activity with a focus on broad antiviral property, and perspectives in drug design (mini-review)” (Eur J Med Chem, 2021).

Some results are limits rather than exact numbers.

For data set [1], the system named is Human betaherpesvirus 5. As to the kind of experiment: Antiviral activity against ganciclovir sensitive HCMV infected in human HELF cells assessed as viral growth inhibition incubated for 8 days. In kind it is functional, organism-based. The conditions noted are these: Human betaherpesvirus 5, HELF, 192 h.
The test system of data set [2] is Human betaherpesvirus 5. As to the kind of experiment: Antiviral activity against ganciclovir resistant HCMV infected in human HELF cells assessed as viral growth inhibition incubated for 8 days. In kind it is functional, organism-based. The conditions noted are these: Human betaherpesvirus 5, HELF, 192 h.
Data set [3] has as its system Human immunodeficiency virus 1. As to the kind of experiment: Antiviral activity against HIV-1 assessed as viral growth inhibition. The format is functional, organism-based.
For data set [4], the system named is Human alphaherpesvirus 2. As to the kind of experiment: Antiviral activity against HSV-2 infected in African green monkey GMK-AH-1 cells assessed as viral growth inhibition incubated for 73 hrs. The format is functional, organism-based. The conditions noted are these: Human alphaherpesvirus 2, 73 h.
Data set [5] deals with Respiratory syncytial virus. As to the kind of experiment: Antiviral activity against RSV assessed as viral growth inhibition. The format is functional, organism-based. The conditions noted are these: human respiratory syncytial virus.
In data set [6] the test system is Deltapapillomavirus 4. As to the kind of experiment: Antiviral activity against BPV1 infected in human HEK293T cells assessed as viral growth inhibition incubated for 72 hrs by green fluorescent protein based method. The format is functional, organism-based. The conditions noted are these: Deltapapillomavirus 4, HEK-293T.
In data set [7] the test system is Human immunodeficiency virus. As to the kind of experiment: Antiviral activity against HIV assessed as viral growth inhibition. The conditions noted are these: Human immunodeficiency virus 1. In kind it is functional, organism-based.
The subject of data set [8] is Lyssavirus rabies. As to the kind of experiment: Antiviral activity against radiolabeled Rabies virus infected in bovine MDBK cell at 80 ug/ml incubated for 4 hrs by attachment assay based liquid scintillation counting analysis. The format is functional. The conditions noted are these: dose 80 µg/ml.
Data set [9] deals with Human papillomavirus type 16. As to the kind of experiment: Antiviral activity against HPV16 infected in human HEK293T cells assessed as viral growth inhibition incubated for 72 hrs by green fluorescent protein based method. The format is functional, organism-based. The conditions noted are these: Human papillomavirus 16, HEK-293T.
Data set [10] in a line: Antiviral activity against HPV18 infected in human HEK293T cells assessed as viral growth inhibition incubated for 72 hrs by green fluorescent protein based method. The format is functional, cell-based. The conditions noted are these: human papillomavirus 18, HEK-293T.
Data set [11] has as its system Human alphaherpesvirus 1. As to the kind of experiment: Antiviral activity against acyclovir resistant HSV-1 infected in African green monkey GMK-AH-1 cells assessed as viral growth inhibition incubated for 73 hrs. In kind it is functional, organism-based. The conditions noted are these: Human alphaherpesvirus 1, 73 h.
Data set [12] deals with Human alphaherpesvirus 1. As to the kind of experiment: Antiviral activity against HSV-1 infected in African green monkey GMK-AH-1 cells assessed as viral growth inhibition incubated for 73 hrs by crystal violet staining assay. In kind it is functional, organism-based. The conditions noted are these: Human alphaherpesvirus 1, 73 h.
A short description of data set [13]: […] in herpetic encephalitis mouse model assessed as reduction in mortality at 250 mg/kg,po bid for 5 days. In kind it is organism-based. On the set-up: scale not given: the % may be the effect or the level left. The conditions noted are these: in vivo, 120 h, time 5 day.
Data set [14] concerns Human alphaherpesvirus 1. As to the kind of experiment: Antiviral activity against HSV-1 assessed as viral growth inhibition. In kind it is functional, organism-based.
The nature of data set [15]: Toxicity in mouse assessed as lethal dose at ip as single dose. The format is organism-based. The conditions noted are these: in vivo.

Turning to `Cl.Cl.[O-][n+]1onc2ncnc(N3CC[N+]4(CC3)CC[N+]3(CCN(c5ncnc6no[n+]([O-])c56)CC3)CC4)c21`, the IC50 in data set [1] came out at 150 nM; in [2] it was 150 nM; in [3], 150000 nM; in [4], 10200 nM; in [5], 7500 nM; in data set [6] it was 2600 nM. Moreover, the IC50 in [7] is 1400 nM; in data set [9] it was 1400 nM; in data set [10], 700 nM; in [11] it was 8100 nM. In data set [8], this compound registered an Activity of 95%.

As for `Cc1nc(N2CC[N+]3(CC2)CC[N+]2(CCNCC2)CC3)c([N+](=O)[O-])c(N2CC[N+]3(CC2)CC[N+]2(CCNCC2)CC3)n1`, in data set [12], the IC50 stood at 1480 nM.

Take `O=C(CCCl)N1CC[N+]2(CC1)CC[N+]1(CCN(C(=O)CCCl)CC1)CC2.[Cl-].[Cl-]`: the Activity in [13] was 35%.

Take `Cc1nc(N2CCC[N+]3(CC2)CC[N+]2(CCCNCC2)CC3)c([N+](=O)[O-])c(N2CCC[N+]3(CC2)CC[N+]2(CCCNCC2)CC3)n1` (configuration not stated): the IC50 was greater than 100000 nM in data set [5], 1970 nM in data set [14] and 4000 nM in data set [7].

With `Cc1nc(N2CC[N+]3(CCC[N+]4(CCNCC4)CC3)CC2)c([N+](=O)[O-])c(N2CC[N+]3(CCC[N+]4(CCNCC4)CC3)CC2)n1`, in [14], the IC50 came out at 1120 nM.

As to `O=C(CCBr)N1CC[N+]2(CC1)CC[N+]1(CCN(C(=O)CCBr)CC1)CC2.[Cl-].[Cl-]` [DIBROSPIDIUM CHLORIDE], the IC50 in [14] worked out at 66100 nM. Besides, the LD50 in data set [15] was 1920 mg/kg. Also, the Activity in [13] was determined as 35%.

Turning to `OC(CCl)CN1CC[N+]2(CC1)CC[N+]1(CCN(CC(O)CCl)CC1)CC2.[Cl-].[Cl-]` (configuration not stated) [PROSPIDIUM CHLORIDE], the IC50 in [14] came out at 62500 nM. The LD50 in data set [15] came to 100 mg/kg.
